From ChEMBL document CHEMBL4665914, “Identification of BRaf-Sparing Amino-Thienopyrimidines with Potent IRE1α Inhibitory Activity” (ACS Med Chem Lett, 2020)

Tests used:
[1] = target: T1, Serine/threonine-protein kinase/endoribonuclease IRE1 (Homo sapiens, UniProt O75460); test: Inhibition of IRE1alpha (unknown origin) assessed as XBP-1 slicing luciferase activity incubated for 1 hr followed by stimulation with thapsigargin measured after 5 hrs by luciferase reporter gene assay
[2] = target: T1, Serine/threonine-protein kinase/endoribonuclease IRE1; test: Competitive inhibition of IRE1alpha LKR domain (Q470 to L997 residues) (unknown origin) expressed in Sf9 insect cells using mini-XBP-1 stem-loop RNA as substrate and measured every 2 mins for 50 mins by FRET assay
[3] = target: Serine/threonine-protein kinase B-raf (Homo sapiens, UniProt P15056, V600E)
hERG (KCNH2) [4] = target: T2, hERG (KCNH2) (Homo sapiens, UniProt Q12809); test: Inhibition of human ERG at 1 uM relative to control
hERG (KCNH2) [5] = target: T2, hERG (KCNH2); test: Inhibition of human ERG at 10 uM relative to control

T1 sequence (O75460 whole entry, the tested form may be a part): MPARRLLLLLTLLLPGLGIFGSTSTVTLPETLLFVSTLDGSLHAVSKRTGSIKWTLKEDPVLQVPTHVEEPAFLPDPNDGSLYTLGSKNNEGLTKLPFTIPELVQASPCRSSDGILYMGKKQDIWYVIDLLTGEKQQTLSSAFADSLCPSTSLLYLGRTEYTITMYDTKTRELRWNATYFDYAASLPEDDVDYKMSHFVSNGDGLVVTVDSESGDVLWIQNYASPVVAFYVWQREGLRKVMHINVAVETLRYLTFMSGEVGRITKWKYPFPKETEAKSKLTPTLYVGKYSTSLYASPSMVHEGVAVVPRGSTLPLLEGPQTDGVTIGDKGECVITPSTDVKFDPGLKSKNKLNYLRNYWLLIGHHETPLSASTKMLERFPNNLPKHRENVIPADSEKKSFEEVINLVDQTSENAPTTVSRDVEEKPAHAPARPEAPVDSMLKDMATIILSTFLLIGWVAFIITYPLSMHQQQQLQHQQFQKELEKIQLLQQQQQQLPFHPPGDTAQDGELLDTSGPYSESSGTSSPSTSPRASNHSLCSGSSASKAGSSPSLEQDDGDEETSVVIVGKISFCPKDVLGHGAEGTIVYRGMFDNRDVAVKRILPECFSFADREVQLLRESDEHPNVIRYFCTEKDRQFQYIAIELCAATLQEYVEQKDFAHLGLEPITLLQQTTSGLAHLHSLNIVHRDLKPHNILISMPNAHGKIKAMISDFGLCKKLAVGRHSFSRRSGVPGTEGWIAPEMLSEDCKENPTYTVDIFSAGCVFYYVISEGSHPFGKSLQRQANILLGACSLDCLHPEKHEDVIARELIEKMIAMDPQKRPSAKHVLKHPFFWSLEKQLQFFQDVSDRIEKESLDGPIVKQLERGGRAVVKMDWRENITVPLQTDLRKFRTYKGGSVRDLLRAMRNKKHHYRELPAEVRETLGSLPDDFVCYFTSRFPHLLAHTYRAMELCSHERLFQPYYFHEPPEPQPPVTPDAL
Serine/threonine-protein kinase B-raf, sequence (P15056 2-766 V600E limits assumed): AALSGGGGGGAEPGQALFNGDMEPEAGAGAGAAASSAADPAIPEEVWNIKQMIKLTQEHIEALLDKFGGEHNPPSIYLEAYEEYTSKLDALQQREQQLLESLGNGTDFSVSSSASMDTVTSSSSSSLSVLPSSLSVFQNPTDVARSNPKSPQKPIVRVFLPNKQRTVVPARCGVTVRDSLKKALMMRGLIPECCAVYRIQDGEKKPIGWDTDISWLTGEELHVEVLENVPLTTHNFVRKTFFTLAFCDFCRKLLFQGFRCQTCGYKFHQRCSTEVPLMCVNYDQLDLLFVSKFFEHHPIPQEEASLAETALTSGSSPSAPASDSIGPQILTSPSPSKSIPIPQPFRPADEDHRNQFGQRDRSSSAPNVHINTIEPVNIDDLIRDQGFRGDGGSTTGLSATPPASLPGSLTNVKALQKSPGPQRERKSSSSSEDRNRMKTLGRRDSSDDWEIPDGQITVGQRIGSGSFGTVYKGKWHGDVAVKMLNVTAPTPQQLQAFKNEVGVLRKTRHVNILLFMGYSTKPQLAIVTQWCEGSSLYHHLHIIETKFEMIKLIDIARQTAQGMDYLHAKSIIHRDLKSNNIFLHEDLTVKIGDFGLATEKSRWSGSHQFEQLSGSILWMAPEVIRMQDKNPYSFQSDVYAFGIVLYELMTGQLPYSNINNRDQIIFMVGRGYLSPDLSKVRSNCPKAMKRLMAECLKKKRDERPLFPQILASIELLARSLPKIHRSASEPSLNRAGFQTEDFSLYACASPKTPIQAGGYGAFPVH
T2 sequence (Q12809 whole entry): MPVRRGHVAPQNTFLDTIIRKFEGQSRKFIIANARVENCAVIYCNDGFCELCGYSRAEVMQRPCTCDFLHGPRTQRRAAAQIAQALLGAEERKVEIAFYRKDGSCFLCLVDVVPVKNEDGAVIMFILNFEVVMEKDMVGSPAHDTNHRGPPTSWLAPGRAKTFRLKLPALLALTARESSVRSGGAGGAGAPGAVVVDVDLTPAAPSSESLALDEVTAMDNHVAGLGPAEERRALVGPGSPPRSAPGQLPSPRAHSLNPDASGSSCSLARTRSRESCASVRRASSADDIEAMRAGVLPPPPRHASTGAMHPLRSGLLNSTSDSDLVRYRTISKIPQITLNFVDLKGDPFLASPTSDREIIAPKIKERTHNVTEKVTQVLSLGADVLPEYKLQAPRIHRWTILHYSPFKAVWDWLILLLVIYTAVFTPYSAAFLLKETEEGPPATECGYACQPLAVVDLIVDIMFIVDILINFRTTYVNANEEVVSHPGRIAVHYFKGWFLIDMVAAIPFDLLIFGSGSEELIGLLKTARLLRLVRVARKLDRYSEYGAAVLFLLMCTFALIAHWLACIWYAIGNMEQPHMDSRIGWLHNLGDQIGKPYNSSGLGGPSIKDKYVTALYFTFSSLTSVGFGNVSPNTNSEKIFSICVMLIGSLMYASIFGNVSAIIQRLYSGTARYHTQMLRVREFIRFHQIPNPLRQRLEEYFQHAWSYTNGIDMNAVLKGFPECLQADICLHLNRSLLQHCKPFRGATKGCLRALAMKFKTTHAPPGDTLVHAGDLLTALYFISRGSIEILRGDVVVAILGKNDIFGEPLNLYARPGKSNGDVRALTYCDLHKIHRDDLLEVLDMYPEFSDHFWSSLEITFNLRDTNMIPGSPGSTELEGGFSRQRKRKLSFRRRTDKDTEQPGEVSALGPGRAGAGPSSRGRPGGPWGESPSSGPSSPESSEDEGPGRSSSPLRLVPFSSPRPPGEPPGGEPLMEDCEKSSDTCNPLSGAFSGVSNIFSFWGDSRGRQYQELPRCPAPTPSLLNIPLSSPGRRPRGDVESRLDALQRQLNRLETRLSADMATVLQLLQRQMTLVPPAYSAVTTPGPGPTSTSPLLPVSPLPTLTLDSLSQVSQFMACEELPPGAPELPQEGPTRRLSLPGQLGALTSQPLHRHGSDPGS

| Structure (SMILES) | IC50 [1] | IC50 [2] | Ki [3] | inhibition at 1 µM (hERG (KCNH2) [4]) | inhibition at 10 µM (hERG (KCNH2) [5]) |
| --- | --- | --- | --- | --- | --- |
| Cc1cc(NS(=O)(=O)c2ccccc2Cl)c2ccccc2c1Oc1ncccc1-c1ccnc(N[C@H]2CC[C@H](N)CC2)n1 | 57 nM | 4.2 nM | – | – | – |
| Cc1cc(C(=O)Nc2c(Cl)ccc(NS(=O)(=O)c3cc(F)ccc3F)c2F)c2ncnc(NCCN)c2c1 | 31000 nM | 920 nM | 5.2 nM | – | – |
| Nc1ncnc2c(C(=O)Nc3c(Cl)ccc(NS(=O)(=O)c4cc(F)ccc4F)c3F)csc12 | 5300 nM | 67 nM | ≤ 0.08 nM | – | – |
| Cc1cc(C(=O)Nc2c(Cl)ccc(NS(=O)(=O)c3cc(F)ccc3F)c2F)c2ncnc(N[C@@H]3CCCNC3)c2c1 | 19000 nM | 3500 nM | 70 nM | – | – |
| Cc1nn(C)cc1-c1cc(C(=O)Nc2c(Cl)ccc(NS(=O)(=O)c3ccccc3F)c2F)c2ncnc(N)c2c1 | 44 nM | 40 nM | ≤ 0.08 nM | – | – |
| Cc1cc(C(=O)Nc2c(Cl)ccc(NS(=O)(=O)c3cc(F)ccc3F)c2F)c2ncnc(N[C@H]3CC[C@H](N)CC3)c2c1 | 19000 nM | 700 nM | 340 nM | – | – |
| Nc1ncnc2c(C(=O)Nc3c(Cl)ccc(NS(=O)(=O)c4cc(F)ccc4F)c3F)cc(-c3cccnc3)cc12 | 4900 nM | 47 nM | ≤ 0.08 nM | – | – |
| Cc1cc(C(=O)Nc2c(Cl)ccc(NS(=O)(=O)c3cc(F)ccc3F)c2F)c2ncnc(N)c2c1 | 1100 nM | 31 nM | ≤ 0.08 nM | – | – |
| Cc1nn(C)cc1-c1cc(C(=O)Nc2c(Cl)ccc(NS(=O)(=O)c3ccccc3Cl)c2F)c2ncnc(N)c2c1 | 48 nM | 64 nM | 0.25 nM | – | – |
| Cc1cc(C(=O)Nc2c(Cl)ccc(NS(=O)(=O)c3cc(F)ccc3F)c2F)c2ncnc(N[C@H]3CCCNC3)c2c1 | 9900 nM | 670 nM | – | – | – |
| N[C@H]1CC[C@H](Nc2ncnc3c(C(=O)Nc4c(Cl)ccc(NS(=O)(=O)Cc5ccccc5)c4F)csc23)CC1 | 390 nM | 30 nM | 55 nM | – | – |
| Nc1ncnc2c(C(=O)Nc3c(Cl)ccc(NS(=O)(=O)N4CCCC4)c3F)cccc12 | 5580 nM | 200 nM | 2.3 nM | – | – |
| N[C@H]1CC[C@H](Nc2ncnc3c(C(=O)Nc4c(Cl)ccc(NS(=O)(=O)c5ccccc5Cl)c4F)csc23)CC1 | 120 nM | 22 nM | – | 1.1% | 6.4% |
| N[C@H]1CC[C@H](Nc2ncnc3c(C(=O)Nc4c(Cl)ccc(NS(=O)(=O)c5cc(F)ccc5F)c4F)csc23)CC1 | 320 nM | 24 nM | 1.4 nM | – | – |
